Measurements reported in patent US6583159B1, “Substitute 1-(piperidin-4-yl)-3-(aryl)-isothioureas, their preparation and therapeutic use” (Pierre Fabre Medicament, priority 1999, dated 2003).
Structures can show the parent of a compound that is named as a salt.

How the values were obtained:
rat isolated left atrium = test: Inhibition of the contraction with veratrine of the rat isolated left atrium; type: cell-based; conditions: 10^−7M, veratrine-induced contraction
Protocol: The inhibition of the contraction with veratrine of the rat isolated left atrium was carried out according to the technique of Le Grand et al. (Naunyn-Schmiedebergs Arch. Pharmacol., (1993) 348, p. 184-190). The results are shown in Table I below, where the percentages of the inhibition are given at a concentration of 10^−7M.

[1] = system: guinea pig perfused isolated heart; test: Antiischemic activity, global ischemia in the guinea pig perfused isolated heart; type: cell-based; conditions: Cavia porcellus, 10^−6M, ischemic contraction vs vehicle group
Protocol: The antiischemic activity was measured with regard to the test of the guinea pig perfused isolated heart according to the technique of Le Grand B. et al. (Am. J. Physiol., 269, H533-H540, 1995). The guinea pig hearts are removed, perfused with a modified Krebs solution and the compound to be studied, in solution in water or in a 99/01 water/DMSO mixture (according to solubility), is added after 20 minutes. […], global ischemia is brought about by halting coronary perfusion for 50 min, followed by reperfusion for 1 h. The inhibition of ischemic contraction in the presence of the compound studied is measured with respect to that of the vehicle group. The results are shown in Table II as nonlimiting examples at a concentration of 10^−6M.

anesthetized rabbit = test: Ischemia-reperfusion in the anesthetized rabbit, oral; type: in vivo
Excerpt: The compounds of the present invention are also active orally in the test of ischemia-reperfusion in the anesthetized rabbit according to the method of Verscheure et al., (J. Cardiovasc. Pharmacol., 1995, 25, 126-133).

Row | melting point [°C] | Structure (SMILES) | also measured
1 | 106 to 107 | CS/C(=N\c1ccccc1)N(C)C1CCN(CCCOc2ccc(F)c(F)c2)CC1.O=C(O)/C=C/C(=O)O | 
2 | 120 | CS/C(=N\c1ccccc1)N(C)C1CCN(CCOc2ccc(F)cc2)CC1.O=C(O)/C=C/C(=O)O | 
3 | 151 to 152 | CS/C(=N\c1ccccc1)N(C)C1CCN(CCCCOc2ccc(F)c(F)c2)CC1.O=C(O)/C=C/C(=O)O [Example 1, 1,2-Dimethyl-3-phenyl-1-[1-[4-(3,4-difluorophenoxy)butyl]piperidin-4-yl]isothiourea hydrogen fumarate] | inhibition at 1 µM [1]: 69%; % arterial pressure variation (anesthetized rabbit; 0.63 mg/kg p.o.): −3%; % heart rate variation (anesthetized rabbit; 0.63 mg/kg p.o.): 5%; % inhibition with regard to ST-segment elevation (anesthetized rabbit; 0.63 mg/kg p.o.): 58%; Number of animals exhibiting reperfusion arrhythmias (anesthetized rabbit; 0.63 mg/kg p.o.): 1/5; inhibition at 0.1 µM (rat isolated left atrium): 28%
4 | 138 to 139 | CS/C(=N\c1ccccc1)N(C)C1CCN(CCCCOc2ccc(C)c(C)c2)CC1.O=C(O)/C=C/C(=O)O | 
5 | 129 to 130 | CS/C(=N\c1ccccc1)N(C)C1CCN(CCCCCOc2ccc(F)c(F)c2)CC1.O=C(O)/C=C/C(=O)O | 
6 | 133 to 134 | CS/C(=N\c1ccccc1)N(C)C1CCN(CCCCOc2ccc(F)cc2)CC1.O=C(O)/C=C/C(=O)O | 
7 | 130 | COc1ccc(/N=C(\SC)N(C)C2CCN(CCCCOc3ccc(F)c(F)c3)CC2)cc1.O=C(O)/C=C/C(=O)O | 
8 | 120 | COc1ccc(OCCCCN2CCC(N(C)/C(=N/c3ccccc3)SC)CC2)cc1.O=C(O)/C=C/C(=O)O | 
9 | 106 to 107 | COc1cc(Cl)ccc1OCCCCN1CCC(N(C)/C(=N/c2ccccc2)SC)CC1.O=C(O)/C=C/C(=O)O | 

Continued, compound first:

Row | Structure (SMILES) | melting point [°C] | also measured
10 | CS/C(=N\c1ccc(Cl)cc1)N(C)C1CCN(CCCCOc2ccc(F)c(F)c2)CC1.O=C(O)/C=C/C(=O)O | 130 | 
11 | CS/C(=N\c1ccc(F)cc1)N(C)C1CCN(CCCCOc2ccc(F)c(F)c2)CC1.O=C(O)/C=C/C(=O)O [Example 13, 1,2-Dimethyl-1-[1-[4-(3,4-difluorophenoxy)butyl]piperidin-4-yl]-3-(4-fluorophenyl)isothiourea hydrogen fumarate] | 125 | inhibition at 0.1 µM (rat isolated left atrium): 34%
12 | CS/C(=N\c1ccc([N+](=O)[O-])cc1)N(C)C1CCN(CCCCOc2ccc(F)c(F)c2)CC1.O=C(O)/C=C/C(=O)O | 132 | 
13 | CS/C(=N\c1c(C(C)C)cccc1C(C)C)N(C)C1CCN(CCCCOc2ccc(F)c(F)c2)CC1.O=C(O)/C=C/C(=O)O | 194 | 
14 | CCN(/C(=N/c1ccccc1)SC)C1CCN(CCCCOc2ccc(F)c(F)c2)CC1.O=C(O)/C=C/C(=O)O [Example 3, 1-Ethyl-1-[1-[4-(3,4-difluorophenoxy)butyl]piperidin-4-yl]-2-methyl-3-phenylisothiourea hydrogen fumarate] | 120 to 121 | inhibition at 0.1 µM (rat isolated left atrium): 32%
15 | CS/C(=N\c1ccc(C)cc1)N(C)C1CCN(CCCCOc2ccc(F)c(F)c2)CC1.O=C(O)/C=C/C(=O)O | 141 | 
16 | CCS/C(=N\c1ccccc1)N(C)C1CCN(CCCCOc2ccc(F)c(F)c2)CC1.O=C(O)/C=C/C(=O)O | 151 to 152 | 
17 | CS/C(=N\c1ccccc1F)N(C)C1CCN(CCCCOc2ccc(F)c(F)c2)CC1.O=C(O)/C=C/C(=O)O | 148 | 
18 | CS/C(=N\c1c(C)cccc1C)N(C)C1CCN(CCCCOc2ccc(F)c(F)c2)CC1.O=C(O)/C=C/C(=O)O | 129 | 
19 | CS/C(=N\c1ccccc1)N(C)C1CCN(CCCOCCc2ccc(F)cc2)CC1.O=C(O)/C=C/C(=O)O | 110 to 111 | 
20 | CN(c1nc2ccccc2s1)C1CCN(CCCCOc2ccc(F)cc2)CC1 [R 56865, N-(1-(4-(4-Fluorophenoxy)butyl)piperidin-4-yl)-N-methyl-2-benzothiazolamine] |  | % arterial pressure variation (anesthetized rabbit; 2.5 mg/kg p.o.): 27%; % heart rate variation (anesthetized rabbit; 2.5 mg/kg p.o.): 0%; % inhibition with regard to ST-segment elevation (anesthetized rabbit; 2.5 mg/kg p.o.): 0%; Number of animals exhibiting reperfusion arrhythmias (anesthetized rabbit; 2.5 mg/kg p.o.): 2/5; inhibition at 0.1 µM (rat isolated left atrium): 33%
21 | CS/C(=N\c1cccc(F)c1)N(C)C1CCN(CCCCOc2ccc(F)c(F)c2)CC1.O=C(O)/C=C/C(=O)O | 133 | 
22 | CS/C(=N\c1ccccc1)N(CC(C)C)C1CCN(CCCCOc2ccc(F)c(F)c2)CC1.O=C(O)/C=C/C(=O)O | 131 to 132 | 
23 | CN(C1=Nc2ccccc2CS1)C1CCN(CCCCOc2ccc(F)c(F)c2)CC1 [PF Control, N-[1-[4-(3,4-Difluorophenoxy)butyl]piperidin-4-yl]-N-methyl-4H-3,1-benzothiazin-2-amine] |  | inhibition at 1 µM [1]: 48%; % arterial pressure variation (anesthetized rabbit; 0.63 mg/kg p.o.): 9%; % heart rate variation (anesthetized rabbit; 0.63 mg/kg p.o.): 9%; % inhibition with regard to ST-segment elevation (anesthetized rabbit; 0.63 mg/kg p.o.): 33%; Number of animals exhibiting reperfusion arrhythmias (anesthetized rabbit; 0.63 mg/kg p.o.): 1/5; inhibition at 0.1 µM (rat isolated left atrium): 25%
24 | CS/C(=N\c1c(F)cccc1F)N(C)C1CCN(CCCCOc2ccc(F)c(F)c2)CC1 [Example 21, 1,2-Dimethyl-1-[1-[4-(3,4-difluorophenoxy)butyl]piperidin-4-yl]-3-(2,6-difluorophenyl)isothiourea hydrogen fumarate] |  | inhibition at 1 µM [1]: 53%; inhibition at 0.1 µM (rat isolated left atrium): 31%
